Laboratory results: ChEMBL document CHEMBL4325854, “Synthetic small molecules as anti-biofilm agents in the struggle against antibiotic resistance” (Eur J Med Chem, 2019)
Values belong to the compound of their own block, whether it stands above or below them. Positions of bridges follow the written chain, without caps; N, C: chain ends. Residues, ends and D or L forms follow the SMILES beside them. Groups on a side chain read outwards from the residue. Chains are numbered I, II in the order given. *: point of attachment. Acetyl(C-α-L-Fucp) = C[C@@H]1O[C@@H](CC(=O)*)[C@@H](O)[C@H](O)[C@@H]1O

What was measured:
Staphylococcus aureus [1] = experiment: Antibiofilm activity against Staphylococcus aureus isolate 702 at 1.5 ug/ml relative to control; assay type: functional
Staphylococcus aureus [2] = experiment: Antibiofilm activity against Staphylococcus aureus isolate 657 at 1.5 ug/ml relative to control; assay type: functional
[3] = test system: Staphylococcus epidermidis; experiment: Antibiofilm activity against Staphylococcus epidermidis RP62A at 1.5 ug/ml relative to control; assay type: functional
Staphylococcus aureus [4] = experiment: Antibiofilm activity against Staphylococcus aureus ATCC 29213 at 1.5 ug/ml relative to control; assay type: functional
[5] = test system: Staphylococcus epidermidis; experiment: Antibiofilm activity against Staphylococcus epidermidis DSM 3269 at 1.5 ug/ml relative to control; assay type: functional
Staphylococcus aureus [6] = experiment: Antibiofilm activity against Staphylococcus aureus ATCC 25923 at 1.5 ug/ml relative to control; assay type: functional
Staphylococcus aureus [7] = experiment: Antibiofilm activity against Staphylococcus aureus BAA-1026; assay type: functional
Enterococcus faecalis = experiment: Antibiofilm activity against Enterococcus faecalis ATCC 29212; assay type: functional
Staphylococcus aureus [8] = experiment: Antibiofilm activity against methicillin-resistant Staphylococcus aureus ATCC 43300; assay type: functional, organism-based
Staphylococcus aureus [9] = experiment: Antibiofilm activity against methicillin-resistant Staphylococcus aureus BAA-1770; assay type: functional, organism-based
Staphylococcus aureus [10] = experiment: Antibiofilm activity against methicillin-resistant Staphylococcus aureus BAA-1685; assay type: functional, organism-based
Sortase A = target: T1, Sortase A (Staphylococcus aureus, UniProt Q9S446); experiment: Inhibition of Staphylococcus aureus SrtA
T1 sequence (Q9S446 whole entry): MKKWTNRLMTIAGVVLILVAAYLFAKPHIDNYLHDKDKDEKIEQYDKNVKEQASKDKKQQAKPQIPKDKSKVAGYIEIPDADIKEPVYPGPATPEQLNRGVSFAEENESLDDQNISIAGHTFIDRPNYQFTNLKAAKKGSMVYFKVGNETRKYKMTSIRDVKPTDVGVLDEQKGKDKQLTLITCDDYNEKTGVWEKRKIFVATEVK

Staphylococcus aureus [11] = experiment: Antibiofilm activity against Staphylococcus aureus at 100 uM relative to control; assay type: functional
Staphylococcus aureus [12] = experiment: Antibiofilm activity against methicillin-resistant Staphylococcus aureus; assay type: functional, organism-based; details: Staphylococcus aureus
Pseudomonas aeruginosa [13] = experiment: Antibiofilm activity against Pseudomonas aeruginosa PA14 assessed as inhibition of biofilm dispersion; assay type: functional, organism-based
[14] = test system: Bordetella bronchiseptica; experiment: Antibiofilm activity against Bordetella bronchiseptica RB50 assessed as inhibition of biofilm dispersion; assay type: functional, organism-based
Pseudomonas aeruginosa [15] = experiment: Antibiofilm activity against Pseudomonas aeruginosa; assay type: functional, organism-based
[16] = target: Fucose-binding lectin PA-IIL (Pseudomonas aeruginosa (strain ATCC 15692 / DSM 22644 / CIP 104116 / JCM14847 / LMG 12228 / 1C / PRS 101 / PAO1), UniProt Q9HYN5); experiment: Inhibition of biotinylated polymeric fucose binding to Pseudomonas aeruginosa LecB expressed in Escherichia coli BL21(DE3) preincubated for 1 hr followed by biotinylated polymeric fucose addition and measured after 1 hr
Acinetobacter baumannii [17] = experiment: Antibiofilm activity against Acinetobacter baumannii preformed biofilms; assay type: functional, organism-based
Pseudomonas aeruginosa [18] = experiment: Antibiofilm activity against Pseudomonas aeruginosa PA14; assay type: functional, organism-based
Pseudomonas aeruginosa [19] = experiment: Antibiofilm activity against Pseudomonas aeruginosa PAO1; assay type: functional, organism-based
Pseudomonas aeruginosa [20] = experiment: Antibiofilm activity against Pseudomonas aeruginosa PAO1 assessed as inhibition of biofilm dispersion; assay type: functional, organism-based
Staphylococcus aureus [21] = experiment: Antibiofilm activity against Staphylococcus aureus ATCC 29213; assay type: functional, organism-based
[22] = test system: Staphylococcus epidermidis; experiment: Antibiofilm activity against Staphylococcus epidermidis at 25 ug/ml relative to control; assay type: functional
Staphylococcus aureus [23] = experiment: Antibiofilm activity against Staphylococcus aureus ATCC 29213 at 25 ug/ml relative to control; assay type: functional
Acinetobacter baumannii [24] = experiment: Antibiofilm activity against Acinetobacter baumannii; assay type: functional, organism-based

Sequence of Fucose-binding lectin PA-IIL (Q9HYN5 whole entry): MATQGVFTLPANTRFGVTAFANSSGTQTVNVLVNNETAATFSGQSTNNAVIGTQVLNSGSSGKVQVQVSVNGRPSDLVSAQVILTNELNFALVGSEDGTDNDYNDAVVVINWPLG

SMILES: O=C(c1cc(Br)cc(Br)c1O)c1[nH]c(Br)c(Br)c1Br
- Activity (Staphylococcus aureus [1]): >60%
- Activity (Staphylococcus aureus [2]): >60%
- Activity [3]: >60%
- Activity (Staphylococcus aureus [4]): >60%
- Activity [5]: >60%
- Activity (Staphylococcus aureus [6]): >60%

SMILES: COc1ccc(-c2csc(-c3ccc(-c4csc(-c5ccccc5)n4)cc3)n2)cc1
- MBEC (Staphylococcus aureus [7]): 62 µg/mL
- MBEC (Enterococcus faecalis): 4 µg/mL

SMILES: CCCCCc1ccc(C(=O)NCCn2cc(CCCCCc3c[nH]c(NCc4ccc(CCCC)cc4)n3)nn2)cc1
- IC50 (Staphylococcus aureus [8]): 4.4 µM
- IC50 (Staphylococcus aureus [9]): 5.9 µM
- IC50 (Staphylococcus aureus [10]): 5.5 µM

SMILES: CC(=O)/C(=N\Nc1ccc([N+](=O)[O-])cc1)C(=O)O
- IC50 (Sortase A): 50 to 92 µM
- Activity (Staphylococcus aureus [11]): 39.2 - 68.3%

SMILES: COC(=O)Oc1c(Br)cc(Br)c2nc3ccccc3nc12
- IC50 (Staphylococcus aureus [12]): 1.4 to 2.9 µM

SMILES: Nc1nc(CCCNC(=O)c2cc(Br)c(Br)n2CCc2ccccc2)c[nH]1
- IC50 (Pseudomonas aeruginosa [13]): 22.9 µM
- IC50 [14]: 22.5 µM

SMILES: O=C(c1cc(Br)ccc1O)c1[nH]c(Cl)c(Br)c1Br
- Activity (Staphylococcus aureus [1]): >60%
- Activity (Staphylococcus aureus [2]): >60%
- Activity [3]: >60%
- Activity (Staphylococcus aureus [4]): >60%
- Activity [5]: >60%
- Activity (Staphylococcus aureus [6]): >60%

SMILES: O=C(Oc1c(Br)cc(Br)c2nc3ccccc3nc12)c1ccco1
- IC50 (Staphylococcus aureus [12]): 1.4 to 2.9 µM

SMILES: CC[C@H](C)[C@H](NC(=O)[C@H](Cc1cnc[nH]1)NC(=O)[C@H](CCCCNC(=O)[C@@H](NC(=O)[C@H](CCCCN)NC(=O)[C@H](Cc1ccccc1)NC(=O)[C@H](CCCCNC(=O)[C@H](CC(C)C)NC(=O)[C@@H]1CCCN1C(=O)[C@H](CCCCN)NC(=O)C[C@@H]1O[C@@H](C)[C@@H](O)[C@@H](O)[C@@H]1O)NC(=O)[C@H](CC(C)C)NC(=O)[C@@H]1CCCN1C(=O)[C@H](CCCCN)NC(=O)C[C@@H]1O[C@@H](C)[C@@H](O)[C@@H](O)[C@@H]1O)[C@@H](C)CC)NC(=O)[C@@H](NC(=O)[C@H](CCCCN)NC(=O)[C@H](Cc1ccccc1)NC(=O)[C@H](CCCCNC(=O)[C@H](CC(C)C)NC(=O)[C@@H]1CCCN1C(=O)[C@H](CCCCN)NC(=O)C[C@@H]1O[C@@H](C)[C@@H](O)[C@@H](O)[C@@H]1O)NC(=O)[C@H](CC(C)C)NC(=O)[C@@H]1CCCN1C(=O)[C@H](CCCCN)NC(=O)C[C@@H]1O[C@@H](C)[C@@H](O)[C@@H](O)[C@@H]1O)[C@@H](C)CC)C(N)=O (I: {Acetyl(C-α-L-Fucp)}-KPLK([Leu-Pro-Lys-Acetyl(C-α-L-Fucp)])FKIKHI-NH2 / II: {Acetyl(C-α-L-Fucp)}-KPLK([Leu-Pro-Lys-Acetyl(C-α-L-Fucp)])FKI; amide I:8-II:C)
- IC50 (Pseudomonas aeruginosa [15]): 10 µM
- IC50 [16]: 0.14 µM

SMILES: O=C(c1cc(Br)ccc1O)c1[nH]c(Cl)c(Cl)c1Br
- Activity (Staphylococcus aureus [1]): >60%
- Activity (Staphylococcus aureus [2]): >60%
- Activity [3]: >60%
- Activity (Staphylococcus aureus [4]): >60%
- Activity [5]: >60%
- Activity (Staphylococcus aureus [6]): >60%

SMILES: CCCCOc1ccc(/C=C(\C)Cn2cc(CCCCCc3c[nH]c(N)n3)nn2)cc1
- EC50 (Acinetobacter baumannii [17]): 44.7 to 59.6 µM
- EC50 (Staphylococcus aureus [12]): 4.5 to 9.8 µM

SMILES: Cc1sc(-c2ccc(-c3csc(-c4ccccc4)n3)cc2)nc1-c1ccccc1
- MBEC (Staphylococcus aureus [7]): 1000 µg/mL
- MBEC (Enterococcus faecalis): 4 µg/mL

SMILES: CCCCc1ccc(C(=O)NCCn2cc(CCCCc3[nH]c(N)nc3-c3cnc4ccccc4c3)nn2)cc1
- IC50 (Staphylococcus aureus [12]): 4.2 µM

SMILES: Clc1ccc(-c2csc(-c3ccc(-c4csc(-c5ccccc5)n4)cc3)n2)cc1
- MBEC (Staphylococcus aureus [7]): >1000 µg/mL
- MBEC (Enterococcus faecalis): 16 µg/mL

- IC50 (Pseudomonas aeruginosa [18]): 2.26 µM
- IC50 (Pseudomonas aeruginosa [19]): 2.84 µM
- IC50 (Pseudomonas aeruginosa [13]): 2.26 µM
- IC50 (Pseudomonas aeruginosa [20]): 2.8 µM
SMILES: CCCCCCCCCCCCNC(=O)CCCc1c[nH]c(N)n1

SMILES: CC(=O)/C(C#N)=N\Nc1ccccc1
- IC50 (Sortase A): 50 to 92 µM
- Activity (Staphylococcus aureus [11]): 39.2 - 68.3%

- IC50 (Staphylococcus aureus [21]): 0.8 µM
SMILES: Cc1cc(C(=O)/C(=N\Nc2ccc(Cl)c(Cl)c2)C(=O)O)no1

SMILES: CCCCCCc1ccc(NC(=O)CCn2cc(C[C@@]34CNC[C@@H]3Nc3ccccc34)nn2)cc1
- IC50 (Staphylococcus aureus [12]): 3.4 µM

SMILES: NC(=O)c1cc(-c2csc(-c3ccc(-c4csc(-c5ccccc5)n4)cc3)n2)ccc1O
- MBEC (Staphylococcus aureus [7]): 250 µg/mL
- MBEC (Enterococcus faecalis): 8 µg/mL

SMILES: O=[N+]([O-])c1ccc(-c2csc(-c3ccc(-c4csc(-c5ccccc5)n4)cc3)n2)cc1
- MBEC (Staphylococcus aureus [7]): >1000 µg/mL
- MBEC (Enterococcus faecalis): 2 µg/mL

SMILES: O=C(c1cc(Cl)cc(Cl)c1O)c1[nH]c(Br)c(Br)c1Br
- Activity (Staphylococcus aureus [1]): >60%
- Activity (Staphylococcus aureus [2]): >60%
- Activity [3]: >60%
- Activity (Staphylococcus aureus [4]): >60%
- Activity [5]: >60%
- Activity (Staphylococcus aureus [6]): >60%

SMILES: CCCCOc1ccc(Br)c(/C=C(\C)Cn2cc(CCCCCc3c[nH]c(N)n3)nn2)c1F
- EC50 (Acinetobacter baumannii [17]): 44.7 to 59.6 µM
- EC50 (Staphylococcus aureus [12]): 4.5 to 9.8 µM

SMILES: Cc1nn(C)c([N-]C(=O)c2ccc(Cl)cc2)c1[N+]#N
- Activity [22]: 69 - 96%
- Activity (Staphylococcus aureus [23]): 69 - 96%

SMILES: CCCCCc1ccc(C(=O)NCCn2cc(CCCCCc3c[nH]c(N)n3)nn2)cc1
- IC50 (Acinetobacter baumannii [24]): 15.2 to 34 µM
- IC50 (Staphylococcus aureus [12]): 15.2 to 34 µM

SMILES: COc1cc(N/N=C(\C(C)=O)C(=O)O)cc(OC)c1OC
- IC50 (Sortase A): 50 to 92 µM
- Activity (Staphylococcus aureus [11]): 39.2 - 68.3%
